Here are results for four compounds from EP0513849B1, “Method of preparing transgenic Zea mays plants regenerated from protoplasts or protoplast-derived cells” (Novartis AG, priority 1987, dated 1988).

Assay [1] relates to Zea mays protoplasts. As to the kind of experiment: Colony formation from cultured Zea mays protoplasts in the presence of plant growth regulators (auxins) (Example 21). Type of assay: cell-based. The conditions noted are these: 0.54 million protoplasts per ml, counted after 3 weeks. As for the experimental part:
(§1) The plates containing the protoplasts in agarose are placed in the dark at 26 °C. Within 14 days, cell colonies arise from the protoplasts. The agarose containing the colonies is transferred to the surface of a 9 cm diameter petri dish containing 30 ml of N6 medium with 2 mg/liter 2,4-D, solidified with 0.24% w/v Gelrite^R (2N6). The colonies are cultured to give callus. The callus is cultured further in the dark at 26 °C and callus pieces subcultured every 2 weeks onto fresh N6 medium containing 2 mg/liter 2,4-D (solidified with 0.24% w/v Gelrite^R).
Protoplasts are resuspended in the last step of example 3 in 6/7 strength KMC solution at 5 million per ml.
Aliquots of protoplast suspension are placed in 6cm diameter petri dishes at room temperature. 2 ml of KM medium containing 1.2% w/v SeaPlaque^R agarose, and 2,4-D, Picloram, Dicamba or para-Chlorophenoxyacetic acid (pCPA) to give the correct plant growth regulator concentrations is added. The final protoplast density used is 0.54 million per ml. The agarose and protoplasts are mixed well, and the medium allowed to gel.
The dishes are cultured as described in example 10. After a period of 3 weeks, macroscopic colonies arising in the dishes are counted.

Assay [2] has as its system Zea mays protoplasts. The assay is described as follows: Colony formation from Zea mays protoplasts with DMSO and O-acetyl-salicylic acid in the presence of 2,4-D (Example 20). The format is cell-based. The conditions noted are these: for number of formed colonies: no additions, 0.75 million protoplasts per ml, counted after 3 weeks. The protocol: as §1
Protoplasts are resuspended in the last step of example 3 in 6/7 strength KMC solution at 7.5 million per ml. The O-acetyl-salicylic acid is dissolved at 2.5 mg/ml in KM medium. The solution is filter sterilized. The O-acetyl-salicylic acid is then added to the culture medium immediately before use. Aliquots of protoplast suspension are placed in 6 cm diameter petri dishes at room temperature. 3 ml of KM medium containing 1.2% w/v SeaPlaque^R agarose, 2,4-D and O-acetyl salicylic acid is added so as to give the correct 2,4-D and O-acetyl-salicylic acid concentrations and a protoplast density of 0.5 million per ml. The agarose and protoplasts are mixed well, and the medium allowed to gel.
The protoplasts are prepared and plated at 0.75 million per ml as described in example 18, using 1 ml of medium per 3.5 cm diameter petri dish. O-acetyl-salicylic acid is included in the medium. The O-acetyl-salicylic acid is dissolved in DMSO and then added to the medium before plating of the protoplasts. To obtain a solution in DMSO, 1 g of O-acetyl-salicylic acid is dissolved in 10 ml DMSO, and added to 90 ml distilled water. The solution is then filter sterilized before use.
The dishes are cultured as described in example 10. After a period of 3 weeks, macroscopic colonies arising in the dishes are counted. […]

The mark [3] stands for this setting: plant growth regulator concentration 0.1 mg/liter.
Setting [4] is: plant growth regulator concentration 1 mg/liter.
[5] abbreviates: plant growth regulator concentration 10 mg/liter.

For the compound `O=C(O)COc1ccc(Cl)cc1Cl` [2,4-D, 2,4-dichlorophenoxyacetic acid], the “number of colonies formed” value in the assay on Zea mays protoplasts [1] (setting [3]) is recorded as 140; with Zea mays protoplasts [1] (setting [4]) it was 0; in the assay with Zea mays protoplasts [1] (setting [5]), 0. Besides, the “number of formed colonies” value was 1 in the assay on Zea mays protoplasts [2] (2,4-D 0.1 mg/liter), 2 in the assay on Zea mays protoplasts [2] (2,4-D 0.3 mg/liter) and 45 in the assay with Zea mays protoplasts [2] (2,4-D 1.0 mg/liter).
In the case of `C[S+](C)[O-]` [DMSO], the colony forming efficiency entry in the assay with Zea mays protoplasts [2] (DMSO alone, 1% v/v) was “no significant increase or decrease”. The “effect on the stimulatory activity of O-acetyl-salicylic acid” value with Zea mays protoplasts [2] (O-acetyl-salicylic acid dissolved in DMSO) was “potentiates the stimulatory activity of the O-acetyl-salicylic acid”.
Turning to `COc1c(Cl)ccc(Cl)c1C(=O)O` [dicamba, 3,6-dichloro-2-methoxy benzoic acid], the “number of colonies formed” value in the assay on Zea mays protoplasts [1] (setting [3]) is 62; in the assay with Zea mays protoplasts [1] (setting [4]), 288; in the assay on Zea mays protoplasts [1] (setting [5]) it was 0.
For `O=C(O)COc1ccc(Cl)cc1` [pCPA, para-chlorophenoxyacetic acid], in that order: 52, 0 and 0.
